From ChEMBL document CHEMBL1201862, “PubChem BioAssay data set” (2004)
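Cells were grown in 96-well plates and exposed to each compound for 48 hours at five concentrations; endpoints were interpolated linearly between bracketing concentrations, or set to the highest concentration if not reached. At the GI50, growth is halved.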 Activity calls are given as the source filed them. Cut-off read from the data, not from the text of the source: active = GI50 up to about 1.1 µM and inactive = higher.

What was measured:
Assay in all cases: growth of human tumour cells (NCI), 48 h
[1] = system: A498
[2] = system: BT-549
[3] = system: CAKI-1
[4] = system: EKVX
[5] = system: HCC 2998
[6] = system: HOP-92
[7] = system: M14
[8] = system: MDA-MB-435
[9] = system: Malme-3M
[10] = system: NCI-H460
[11] = system: OVCAR-3
[12] = system: OVCAR-5
[13] = system: OVCAR-8
[14] = system: RPMI-8226
[15] = system: SF-268
[16] = system: SN12C
[17] = system: SNB-19
[18] = system: SW-620
[19] = system: UACC-257
[20] = system: UO-31

SMILES | GI50 [1] | GI50 [2] | GI50 [3] | GI50 [4] | GI50 [5] | GI50 [6] | GI50 [7] | GI50 [8] | GI50 [9] | GI50 [10] | GI50 [11] | GI50 [12] | GI50 [13] | GI50 [14] | GI50 [15] | GI50 [16] | GI50 [17] | GI50 [18] | GI50 [19] | GI50 [20]
O=C1NC2c3c(I)sc(I)c3C(=O)C2O1 (stereo not given) | 14.3 µM (inactive) | 5.53 µM (inactive) | 3.52 µM (inactive) | 5.52 µM (inactive) | 3.95 µM (inactive) | 3.38 µM (inactive) | 2.07 µM (inactive) | 4.45 µM (inactive) | 2.23 µM (inactive) | 13.9 µM (inactive) | 3.31 µM (inactive) | 14.3 µM (inactive) | 2.84 µM (inactive) | 8.15 µM (inactive) | 6.76 µM (inactive) | 4.27 µM (inactive) | 13.2 µM (inactive) | 2.82 µM (inactive) | 4.97 µM (inactive) | 3.82 µM (inactive)
Cc1ccc(S(=O)(=O)N2CCSCCSCCSCCSCC2)cc1 | > 44.2 µM (inactive) | 25.4 µM (inactive) | 22.4 µM (inactive) | 48.5 µM (inactive) | > 100 µM (inactive) | 12.3 µM (inactive) | 61.4 µM (inactive) | 73.8 µM (inactive) | > 72.8 µM (inactive) | 56.4 µM (inactive) | 35.5 µM (inactive) | > 100 µM (inactive) | 24.3 µM (inactive) | 77.1 µM (inactive) | 34.5 µM (inactive) | > 58.5 µM (inactive) | 24.8 µM (inactive) | > 100 µM (inactive) | > 91.2 µM (inactive) | 50.2 µM (inactive)
COC1/C=C/C(C)C(OC)CC(O)/C=C/C(C)C(C(C)C(OC)C(C)CCC(=O)C(C)C(C/C=C/N(C)C=O)OC)OC(=O)/C=C/C=C(\C)CC(OC)CC2=CC(=O)O[C@@H](C(C)C(OC)C1)[C@H]2O (stereo not given in full) | 0.056 µM (active) | 0.142 µM (active) | 0.0332 µM (active) | 0.386 µM (active) | 0.175 µM (active) | 0.0634 µM (active) | 0.056 µM (active) | 0.182 µM (active) | 0.069 µM (active) | 0.0395 µM (active) | 0.049 µM (active) | 0.177 µM (active) | 0.16 µM (active) | 0.0536 µM (active) | 0.153 µM (active) | 0.379 µM (active) | 0.0962 µM (active) | 0.0664 µM (active) | 0.11 µM (active) | 0.0998 µM (active)
O=C1CN(c2ccccc2)C(=O)CN1CCN1CC(=O)N(c2ccccc2)CC1=O | > 100 µM (inactive) | > 100 µM (inactive) | > 100 µM (inactive) | > 100 µM (inactive) | > 100 µM (inactive) | > 100 µM (inactive) | > 100 µM (inactive) | > 100 µM (inactive) | > 100 µM (inactive) | > 100 µM (inactive) | > 100 µM (inactive) | > 100 µM (inactive) | > 100 µM (inactive) | > 100 µM (inactive) | > 100 µM (inactive) | > 100 µM (inactive) | > 100 µM (inactive) | > 100 µM (inactive) | > 100 µM (inactive) | > 100 µM (inactive)
COc1ccc2c(c1)[C@@H]1c3cc(OC)c(OC)cc3CCN1CCC2 | > 100 µM (inactive) | 68.9 µM (inactive) | > 100 µM (inactive) | > 100 µM (inactive) | > 100 µM (inactive) | 9.18 µM (inactive) | > 100 µM (inactive) | > 100 µM (inactive) | > 100 µM (inactive) | 31.4 µM (inactive) | > 100 µM (inactive) | > 100 µM (inactive) | > 100 µM (inactive) | 54.8 µM (inactive) | > 100 µM (inactive) | > 100 µM (inactive) | > 100 µM (inactive) | > 100 µM (inactive) | 19.7 µM (inactive) | 72.9 µM (inactive)
